In patent publication US20210284638A1 (Saint Louis University, priority 2018, published 2021):

Key:
Type in all cases: binding
[1] = molecular target: T1, Recombinant human integrin αVβ6 (Homo sapiens, UniProt P06756+P18564); assay: Solid Phase Receptor Assay (SPRA) for αVβ6 function; conditions: plate-bound human LAP
T1 construct: purchased R&D Systems 3817-AV
Method: E. Solid Phase Receptor Assay (SPRA) for αVβ6 Function
(§1) Wells were washed 3 times with 150 μL TBS+, and then 150 μL of blocking buffer (TBS+ with 1% bovine serum albumin, Sigma A7906) was added. The plate was incubated for 1 hr at 37° C., and then washed 3× with TBS+ buffer. […] Compounds were diluted to 20 μM and then 1 μL was added to each well of the plate according to a standard template with each sample repeated in triplicate. After incubation for two hours at room temperature, the plate was washed 3× with 150 μL of TBS+ buffer. To each well, 50 μL of biotinylated anti-αV antibody (R&D Systems, BAF1219) at 0.5 μg/mL in TBS+/0.1% BSA were added and the plate was covered and incubated for 1 hr at room temperature. After washing the plate 3× with 150 μL of TBS+ buffer, 50 μL of streptavidin-conjugated horseradish peroxidase (R&D Systems, DY998) diluted in TBS+ blocking buffer were added to the wells and the plate incubated for 20 min at room temperature. The plate was washed 3× with TBS+ buffer followed by 50 μL of TMB substrate (Sigma T4444) added to each well in the dark and the plate incubated for 10 min at room temperature. 25 μL of 1.0 M phosphoric acid was added as a stop solution and the plates were read at 450 nm using a Spectramax plate reader.

[2] = molecular target: T2, Recombinant human integrin αVβ8 (Homo sapiens, UniProt P06756+P26012); assay: Solid Phase Receptor Assay for αVβ8 function; conditions: plate-bound human LAP; read-out: αVβ8 SPRA IC50
T2 construct: purchased R&D Systems 4135-AV
Method: F. Solid Phase Receptor Assay (SFRA) for αVβ8 Function
Wells were washed 3 times with 150 μL TBS+ and then 150 μL of blocking buffer (TBS+ with 1% bovine serum albumin, Sigma A7906) was added. The plate was incubated for 1 hr at 37° C. and then washed 3× with TBS+. […] Compounds were diluted to 20 μM and 1 μL was added to each well of the plate according to a standard template with each sample repeated in triplicate. After incubation for two hours at room temperature, the plate was washed 3× with 150 μL of TBS+. To each well, 50 μL of biotinylated anti-αV antibody (R&D Systems, BAF1219) at 1 μg/mL in TBS+/0.1% BSA were added and the plate was covered and incubated for 1 hr at room temperature. After washing the plate 3× with 150 μL of TBS+ buffer, 50 μL of streptavidin-conjugated horseradish peroxidase (R&D Systems, DY998) diluted in TBS+ blocking buffer were added to the wells and the plate incubated for 20 min at room temperature. The plate was washed 3× with TBS+ followed by 50 μL of TMB substrate (Sigma T4444) added to each well in the dark and the plate incubated for 10 min at room temperature. 25 μL of 1.0 M phosphoric acid was added as a stop solution and the plates were read at 450 nm using a Spectramax plate reader.

[3] = molecular target: T3, Recombinant human integrin α5β1 (Homo sapiens, UniProt P05556+P08648); assay: Solid Phase Receptor Assay (SPRA) for α5β1 function; conditions: plate-bound human fibronectin
T3 construct: purchased R&D Systems 3230-A5
Method: A. Solid Phase Receptor Assay (SPRA) for α5β1 Function
Wells were washed 3 times with 150 μL TBS+ and then 150 μL of blocking buffer (TBS+ with 1% bovine serum albumin, Sigma A7906) was added. The plate was incubated for 1 hr at 37° C. and then washed 3× with TBS+ buffer. […] Compounds were diluted to 20 μM and then 1 μL was added to each well of the plate according to a standard template with each sample repeated in triplicate. After incubation for two hours at room temperature, the plate was washed 3× with 150 μL of TBS+ buffer. To each well, 50 μL of biotinylated anti-α5 antibody (R&D Systems, BAF1864) at 0.5 μg/mL in TBS+/0.1% BSA were added and the plate covered and incubated for 1 hr at room temperature. After washing the plate 3× with 150 μL of TBS+ buffer, 50 μL of streptavidin-conjugated horseradish peroxidase (R&D Systems, DY998) diluted in TBS+ blocking buffer were added to the wells and the plate incubated for 20 min at room temperature. The plate was washed 3× with TBS+ buffer followed by 50 μL of room temperature TMB substrate (Sigma, T4444) added to each well in the dark and the plate incubated for 25 min at room temperature. 25 μL of 1.0 M phosphoric acid was added as a stop solution and the plates were read at 450 nm using a Spectramax plate reader.

[4] = molecular target: T4, Recombinant human integrin αVβ5 (Homo sapiens, UniProt P06756+P18084); assay: Solid Phase Receptor Assay (SPRA) for αVβ5 function; conditions: plate-bound human vitronectin
T4 construct: purchased R&D Systems 2528-AV
Method: D. Solid Phase Receptor Assay (SPRA) for αVβ5 Function
as §1, with “150 μL TBS+ and then” for “150 μL TBS+, and then”, “at 37° C. and then” for “at 37° C., and then”, “well, 50 μl of biotinylated” for “well, 50 μL of biotinylated”, “TBS+/0.1% BSA at 0.5 μg/mL were added” for “TBS+/0.1% BSA were added”, “the plate covered and” for “the plate was covered and”, “incubated for 5 min at” for “incubated for 10 min at”

T4 sequence (P06756 31-992 limits assumed): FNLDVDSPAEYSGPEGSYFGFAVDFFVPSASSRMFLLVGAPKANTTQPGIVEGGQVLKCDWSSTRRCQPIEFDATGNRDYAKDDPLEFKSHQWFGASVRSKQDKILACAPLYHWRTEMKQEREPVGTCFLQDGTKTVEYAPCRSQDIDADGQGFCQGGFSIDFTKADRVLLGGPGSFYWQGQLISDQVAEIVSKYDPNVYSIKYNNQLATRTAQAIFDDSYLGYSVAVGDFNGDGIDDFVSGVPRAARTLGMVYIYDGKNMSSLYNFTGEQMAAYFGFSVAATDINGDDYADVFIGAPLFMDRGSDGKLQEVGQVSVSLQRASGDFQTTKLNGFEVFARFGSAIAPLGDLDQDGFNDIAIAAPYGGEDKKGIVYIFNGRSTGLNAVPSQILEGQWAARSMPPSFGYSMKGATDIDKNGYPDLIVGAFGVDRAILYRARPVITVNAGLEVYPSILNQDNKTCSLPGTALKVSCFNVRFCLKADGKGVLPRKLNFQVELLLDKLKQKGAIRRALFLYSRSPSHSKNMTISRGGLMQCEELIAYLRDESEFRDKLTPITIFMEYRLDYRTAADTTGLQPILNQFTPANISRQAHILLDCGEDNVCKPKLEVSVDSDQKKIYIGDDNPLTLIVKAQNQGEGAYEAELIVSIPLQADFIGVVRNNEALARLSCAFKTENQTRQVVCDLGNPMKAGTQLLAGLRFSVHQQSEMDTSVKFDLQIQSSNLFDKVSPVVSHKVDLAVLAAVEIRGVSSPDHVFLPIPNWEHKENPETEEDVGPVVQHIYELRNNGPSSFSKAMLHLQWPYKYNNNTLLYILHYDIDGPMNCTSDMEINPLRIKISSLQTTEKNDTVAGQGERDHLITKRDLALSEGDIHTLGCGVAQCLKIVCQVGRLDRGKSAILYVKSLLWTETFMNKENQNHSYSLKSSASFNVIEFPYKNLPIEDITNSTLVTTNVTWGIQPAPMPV
T4 sequence (P18084 24-719 limits assumed): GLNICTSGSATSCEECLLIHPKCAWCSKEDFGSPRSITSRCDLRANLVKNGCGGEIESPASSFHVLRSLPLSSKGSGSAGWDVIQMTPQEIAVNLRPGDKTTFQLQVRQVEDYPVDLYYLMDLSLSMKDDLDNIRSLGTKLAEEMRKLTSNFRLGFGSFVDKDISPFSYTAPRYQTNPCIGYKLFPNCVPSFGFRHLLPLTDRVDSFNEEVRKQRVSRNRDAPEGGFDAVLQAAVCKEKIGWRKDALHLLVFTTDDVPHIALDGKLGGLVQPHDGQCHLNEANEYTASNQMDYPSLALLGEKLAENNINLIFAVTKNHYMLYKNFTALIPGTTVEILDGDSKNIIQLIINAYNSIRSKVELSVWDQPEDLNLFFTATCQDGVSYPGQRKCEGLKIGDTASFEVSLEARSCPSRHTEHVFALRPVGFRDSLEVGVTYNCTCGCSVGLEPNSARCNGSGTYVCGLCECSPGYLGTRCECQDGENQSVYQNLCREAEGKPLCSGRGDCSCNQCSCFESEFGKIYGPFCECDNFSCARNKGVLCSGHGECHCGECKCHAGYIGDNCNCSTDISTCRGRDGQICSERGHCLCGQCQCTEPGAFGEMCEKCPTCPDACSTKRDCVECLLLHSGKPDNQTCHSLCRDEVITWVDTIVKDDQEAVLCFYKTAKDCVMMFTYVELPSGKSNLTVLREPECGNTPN
T2 sequence (P06756 31-992 limits assumed): as the sequence (P06756 31-992 limits assumed) above
T2 sequence (P26012 43-684 limits assumed): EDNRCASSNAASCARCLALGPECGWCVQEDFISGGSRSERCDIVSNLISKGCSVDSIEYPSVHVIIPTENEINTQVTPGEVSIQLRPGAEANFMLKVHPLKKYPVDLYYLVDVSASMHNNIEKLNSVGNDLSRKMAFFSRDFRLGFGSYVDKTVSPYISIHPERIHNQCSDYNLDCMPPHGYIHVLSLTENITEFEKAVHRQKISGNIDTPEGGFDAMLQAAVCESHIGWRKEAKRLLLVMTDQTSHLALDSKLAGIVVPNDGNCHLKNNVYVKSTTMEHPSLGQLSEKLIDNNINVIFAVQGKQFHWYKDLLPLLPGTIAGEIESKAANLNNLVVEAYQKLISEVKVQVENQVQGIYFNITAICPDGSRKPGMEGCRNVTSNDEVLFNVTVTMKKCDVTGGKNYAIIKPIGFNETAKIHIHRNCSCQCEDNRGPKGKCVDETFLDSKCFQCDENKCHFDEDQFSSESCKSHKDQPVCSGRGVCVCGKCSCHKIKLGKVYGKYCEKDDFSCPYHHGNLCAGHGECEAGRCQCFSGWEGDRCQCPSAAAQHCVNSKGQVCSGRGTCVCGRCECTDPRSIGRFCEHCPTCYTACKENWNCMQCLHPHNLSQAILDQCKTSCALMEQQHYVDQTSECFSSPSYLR
T1 sequence (P06756 31-992 limits assumed): as the sequence (P06756 31-992 limits assumed) above
T1 sequence (P18564 22-707 limits assumed): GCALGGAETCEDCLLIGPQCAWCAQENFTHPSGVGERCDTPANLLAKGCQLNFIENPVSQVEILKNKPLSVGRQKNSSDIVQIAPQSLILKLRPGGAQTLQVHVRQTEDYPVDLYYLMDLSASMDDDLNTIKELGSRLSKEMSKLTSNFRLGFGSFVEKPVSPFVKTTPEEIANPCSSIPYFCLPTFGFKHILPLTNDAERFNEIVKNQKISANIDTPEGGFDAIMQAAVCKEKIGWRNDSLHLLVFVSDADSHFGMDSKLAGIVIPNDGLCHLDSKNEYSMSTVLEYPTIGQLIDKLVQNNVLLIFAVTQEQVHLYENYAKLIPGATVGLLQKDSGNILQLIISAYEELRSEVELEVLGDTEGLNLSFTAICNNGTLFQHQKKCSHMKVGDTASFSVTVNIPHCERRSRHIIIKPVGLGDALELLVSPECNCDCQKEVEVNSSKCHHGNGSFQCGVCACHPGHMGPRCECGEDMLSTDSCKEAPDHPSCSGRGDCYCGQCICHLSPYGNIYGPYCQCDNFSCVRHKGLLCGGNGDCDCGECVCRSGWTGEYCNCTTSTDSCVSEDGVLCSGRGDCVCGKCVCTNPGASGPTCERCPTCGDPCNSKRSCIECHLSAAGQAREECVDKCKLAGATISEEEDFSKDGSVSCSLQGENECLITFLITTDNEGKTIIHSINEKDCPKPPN
T3 sequence (P08648 42-995 limits assumed): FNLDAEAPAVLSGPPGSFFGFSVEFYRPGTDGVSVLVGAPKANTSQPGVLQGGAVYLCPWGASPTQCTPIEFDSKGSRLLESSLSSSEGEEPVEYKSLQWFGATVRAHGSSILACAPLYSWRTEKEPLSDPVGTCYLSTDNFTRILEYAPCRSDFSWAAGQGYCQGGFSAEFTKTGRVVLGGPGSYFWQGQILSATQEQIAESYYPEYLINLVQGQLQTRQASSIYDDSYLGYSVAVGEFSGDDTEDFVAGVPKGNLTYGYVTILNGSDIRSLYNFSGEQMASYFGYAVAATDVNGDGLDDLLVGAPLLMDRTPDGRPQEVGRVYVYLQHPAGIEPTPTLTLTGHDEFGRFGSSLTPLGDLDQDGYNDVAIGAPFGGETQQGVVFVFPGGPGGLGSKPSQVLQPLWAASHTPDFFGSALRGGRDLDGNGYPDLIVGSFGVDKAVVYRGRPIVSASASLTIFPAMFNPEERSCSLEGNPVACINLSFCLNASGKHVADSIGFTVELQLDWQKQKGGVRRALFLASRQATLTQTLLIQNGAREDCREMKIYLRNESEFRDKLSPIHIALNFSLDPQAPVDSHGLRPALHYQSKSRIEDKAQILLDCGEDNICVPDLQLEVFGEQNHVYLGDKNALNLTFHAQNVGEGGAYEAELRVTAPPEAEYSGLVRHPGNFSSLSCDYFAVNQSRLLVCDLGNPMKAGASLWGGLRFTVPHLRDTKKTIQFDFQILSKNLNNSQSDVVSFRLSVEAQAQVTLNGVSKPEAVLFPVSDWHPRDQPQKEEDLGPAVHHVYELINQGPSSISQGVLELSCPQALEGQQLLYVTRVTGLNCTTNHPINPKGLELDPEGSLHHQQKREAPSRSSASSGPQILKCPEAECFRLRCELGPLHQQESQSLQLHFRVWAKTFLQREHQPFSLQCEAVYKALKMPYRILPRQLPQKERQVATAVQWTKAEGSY
T3 sequence (P05556 21-728 limits assumed): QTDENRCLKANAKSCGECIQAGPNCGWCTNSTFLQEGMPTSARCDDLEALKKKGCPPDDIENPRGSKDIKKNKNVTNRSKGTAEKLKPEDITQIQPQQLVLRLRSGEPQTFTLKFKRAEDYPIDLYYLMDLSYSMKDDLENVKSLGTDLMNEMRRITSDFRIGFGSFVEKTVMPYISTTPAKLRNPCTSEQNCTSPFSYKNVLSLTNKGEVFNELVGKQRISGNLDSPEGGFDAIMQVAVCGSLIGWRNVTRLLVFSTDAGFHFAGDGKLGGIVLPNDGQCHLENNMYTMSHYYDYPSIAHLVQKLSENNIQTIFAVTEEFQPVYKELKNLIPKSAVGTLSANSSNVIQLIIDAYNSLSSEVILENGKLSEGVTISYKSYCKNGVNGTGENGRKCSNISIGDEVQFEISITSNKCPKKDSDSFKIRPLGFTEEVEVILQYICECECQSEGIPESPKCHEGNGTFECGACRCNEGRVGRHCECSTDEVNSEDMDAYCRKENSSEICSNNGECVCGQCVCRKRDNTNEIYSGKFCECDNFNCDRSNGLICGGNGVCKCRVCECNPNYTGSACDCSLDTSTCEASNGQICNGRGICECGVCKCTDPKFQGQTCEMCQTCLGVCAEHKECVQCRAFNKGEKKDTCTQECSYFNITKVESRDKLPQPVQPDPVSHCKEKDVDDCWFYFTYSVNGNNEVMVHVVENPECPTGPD

| SMILES | IC50 [1] [nM] | IC50 [2] [nM] | IC50 [3] [nM] | IC50 [4] [nM] |
| --- | --- | --- | --- | --- |
| O=C(O)CC(Cc1cc(OCCc2ccc3c(n2)NCCC3)[nH]n1)c1cccc(F)c1 (centres unmarked) [CC2, reference compound] | 54 | 680 | 770 | 0.2 |
| COCC1(c2cc(C(CC(=O)O)Cc3cc(OCCc4ccc5c(n4)NCCC5)n(C)n3)cc(C(C)(C)C)c2)CCOCC1 (centres unmarked) [Example 1, 3-[3-tert-butyl-5-[4-(methoxymethyl)tetrahydropyran-4-yl]phenyl]-4-[1-methyl-5-[2-(5,6,7,8-tetrahydro-1,8-naphthyridin-2-yl)ethoxy]pyrazol-3-yl]butanoic acid] | 200 | 27 | 2 | 44 |
| CC(C)c1cc(C#N)cc(C(CC(=O)O)Cc2cc(OCCc3ccc4c(n3)NCCC4)n(C)n2)c1 (centres unmarked) [Example 2, 3-(3-cyano-5-isopropylphenyl)-4-(1-methyl-5-(2-(5,6,7,8-tetrahydro-1,8-naphthyridin-2-yl)ethoxy)-1H-pyrazol-3-yl)butanoic acid trifluoroacetic acid] | 20 | 7 | 7 | 0.3 |
| Cn1nc(CC(CC(=O)O)c2cc(Br)cc(S(F)(F)(F)(F)F)c2)cc1OCCc1ccc2c(n1)NCCC2 (centres unmarked) [Example 3, 3-[3-bromo-5-(pentafluoro-sulfanyl)phenyl]-4-[1-methyl-5-[2-(5,6,7,8-tetrahydro-1,8-naphthyridin-2-yl)ethoxy]pyrazol-3-yl]butanoic acid] | 54 | 13 | 31 | 2 |
| CC(C)c1cc(C(C)C)cc(C(CC(=O)O)Cc2cc(OCCc3ccc4c(n3)NCCC4)n(C)n2)c1 (centres unmarked) [Example 4, 3-(3,5-diisopropylphenyl)-4-[1-methyl-5-[2-(5,6,7,8-tetrahydro-1,8-naphthyridin-2-yl)ethoxy]pyrazol-3-yl]butanoic acid] | 84 | 18 | 4 | 6 |
| Cn1nc(CC(CC(=O)O)c2cc(C(C)(C)C)cc(C(C)(C)C(F)(F)F)c2)cc1OCCc1ccc2c(n1)NCCC2 (centres unmarked) [Example 5, 3-(3-(tert-butyl)-5-(1,1,1-trifluoro-2-methylpropan-2-yl)phenyl)-4-(1-methyl-5-(2-(5,6,7,8-tetrahydro-1,8-naphthyridin-2-yl)ethoxy)-1H-pyrazol-3-yl) butanoic acid] | 460 | 20 | 2 | 160 |
| Cn1nc(CC(CC(=O)O)c2cc(C(C)(C)C)cc(C3(C(F)F)CC3)c2)cc1OCCc1ccc2c(n1)NCCC2 (centres unmarked) [Example 6, 3-(3-(tert-butyl)-5-(1-(difluoromethyl)cyclopropyl)phenyl)-4-(1-methyl-5-(2-(5,6,7,8-tetrahydro-1,8-naphthyridin-2-yl)ethoxy)-1H-pyrazol-3-yl)butanoic acid] | 140 | 15 | 6 | 54 |
| Cn1nc(CC(CC(=O)O)c2cc(C(C)(C)C)cc(C(C)(C)CO)c2)cc1OCCc1ccc2c(n1)NCCC2 (centres unmarked) [Example 7, 3-[3-tert-butyl-5-(2-hydroxy-1,1-dimethyl-ethyl)phenyl]-4-[1-methyl-5-[2-(5,6,7,8-tetrahydro-1,8-naphthyridin-2-yl)ethoxy]pyrazol-3-yl]butanoic acid] | 300 | 18 | 1 | 27 |
| Cn1nc(CC(CC(=O)O)c2cc(Cl)cc(C(C)(C)C#N)c2)cc1OCCc1ccc2c(n1)NCCC2 (centres unmarked) [Example 8, 3-(3-chloro-5-(2-cyanopropan-2-yl)phenyl)-4-(1-methyl-5-(2-(5,6,7,8-tetrahydro-1,8-naphthyridin-2-yl)ethoxy)-1H-pyrazol-3-yl)butanoic acid] | 36 | 3 | 3 | 0.3 |
| Cn1nc(CC(CC(=O)O)c2cc(C(C)(C)C)cc(C(C)(C)C#N)c2)cc1OCCc1ccc2c(n1)NCCC2 (centres unmarked) [Example 9, 3-[3-tert-butyl-5-(1-cyano-1-methyl-ethyl)phenyl]-4-[1-methyl-5-[2-(5,6,7,8-tetrahydro-1,8-naphthyridin-2-yl)ethoxy]pyrazol-3-yl]butanoic acid] | 150 | 8 | 1 | 32 |
| COc1c(C(C)(C)C)cc(C(CC(=O)O)Cc2cc(OCCc3ccc4c(n3)NCCC4)n(C)n2)cc1C(C)(C)C (centres unmarked) [Example 10, 3-(3,5-di-tert-butyl-4-methoxyphenyl)-4-(1-methyl-5-(2-(5,6,7,8-tetrahydro-1,8-naphthyridin-2-yl)ethoxy)-1H-pyrazol-3-yl)butanoic acid] | 130 | 92 | 15 | 84 |
| COc1c(C(CC(=O)O)Cc2cc(OCCc3ccc4c(n3)NCCC4)n(C)n2)cc(C(C)(C)C)cc1C(C)(C)C (centres unmarked) [Example 11, 3-(3,5-di-tert-butyl-2-methoxyphenyl)-4-(1-methyl-5-(2-(5,6,7,8-tetrahydro-1,8-naphthyridin-2-yl)ethoxy)-1H-pyrazol-3-yl)butanoic acid] | 11000 | 740 | 15000 | 17000 |
| COc1c(Br)cc(C(C)(C)C)cc1C(CC(=O)O)Cc1cc(OCCc2ccc3c(n2)NCCC3)n(C)n1 (centres unmarked) [Example 12, 3-(3-bromo-5-(tert-butyl)-2-methoxyphenyl)-4-(1-methyl-5-(2-(5,6,7,8-tetrahydro-1,8-naphthyridin-2-yl)ethoxy)-1H-pyrazol-3-yl)butanoic acid] | 180 | 17 | 180 | 160 |
| COc1cc(C(CC(=O)O)Cc2cc(OCCc3ccc4c(n3)NCCC4)n(C)n2)cc(C23CC4CC(CC(C4)C2)C3)c1OCc1ccccc1 (centres unmarked) [Example 13, 3-[3-(1-adamantyl)-4-benzyloxy-5-methoxy-phenyl]-4-[1-methyl-5-[2-(5,6,7,8-tetrahydro-1,8-naphthyridin-2-yl)ethoxy]pyrazol-3-yl]butanoic acid] | 170 | 540 | 210 | 140 |
